The test system of test [1] is sodium dependent glucose transporter. Particulars: in vitro study; cited from earlier work.
The next test addresses T1, human pancreatic lipase (Homo sapiens, UniProt P16233).
T1 sequence (P16233 17-465): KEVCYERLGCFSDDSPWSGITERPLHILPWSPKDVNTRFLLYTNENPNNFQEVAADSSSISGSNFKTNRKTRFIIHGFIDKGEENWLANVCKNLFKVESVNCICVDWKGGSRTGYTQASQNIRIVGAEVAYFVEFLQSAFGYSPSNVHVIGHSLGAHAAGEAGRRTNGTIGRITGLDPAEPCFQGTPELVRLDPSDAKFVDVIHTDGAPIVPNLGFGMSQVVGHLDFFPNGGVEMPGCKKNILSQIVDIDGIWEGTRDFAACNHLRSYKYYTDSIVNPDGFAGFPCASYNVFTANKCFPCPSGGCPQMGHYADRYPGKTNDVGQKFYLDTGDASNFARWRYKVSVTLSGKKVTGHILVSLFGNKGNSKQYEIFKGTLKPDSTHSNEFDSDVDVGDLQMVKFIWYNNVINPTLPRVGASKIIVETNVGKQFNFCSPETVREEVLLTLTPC
The test is described as follows: lipase inhibition activity (USP units per mg). Format: biochemical. As to the method: Polymerized catechins are prepared from fermented catechins. Tea catechins are incubated with polyphenol oxidase in a reaction tank for 60 to 120 minutes. The mixture is then extracted with ethyl acetate and dried. In particular embodiments, the extracts have at least 10 USP units human pancreatic lipase inhibition per mg.
LIPOTAME™, an exemplary polymerized catechin commercially available from NatureGen, has 11.62 USP units/mg of lipase inhibition activity, compared to 80 USP units/mg of lipase inhibition activity found in ORLISTAT®.

`O=C(O[C@@H]1Cc2c(O)cc(O)cc2O[C@@H]1c1ccc(O)c(O)c1)c1cc(O)c(O)c(O)c1` [Epicatechin gallate]: the “inhibition of the glucose uptake through incubated intestinal membranes” value in test [1] is “up to 50%”.

`CCCCCCCCCCC[C@@H](C[C@@H]1OC(=O)[C@H]1CCCCCC)OC(=O)[C@H](CC(C)C)NC=O` [ORLISTAT®, Orlistat] displayed a lipase inhibition activity on human pancreatic lipase of 80 USP units/mg.

Source of the values: US20070036874A1, “Compositions and methods for controlling glucose and lipid uptake from foods” (priority 2005, published 2007).
